Data taken from the supplement of paper PMC11061612.

Key:
[1] = tested on: OCI-AML3 (Acute Myeloid Leukemia); assay: Bliss excess, mean over the matrix (fraction); higher = more synergy
How it was run: (§1)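 Cell lines grown in DMEM/F12 or RPMI with 10% FBS were plated in 1536-well plates and held 24 hours at 37°C, 5% CO2 before 72 hours of exposure to two-drug dose matrices, with DMSO typically at 0.2%. CellTiter-Glo 2.0 luminescence gave viability, which was converted to inhibition. Vehicle wells were set to 0 and blank wells to 1. Combination Emax is the second-highest inhibition in the matrix, and Bliss excess is the observed combination effect minus the expected EA + EB − EA·EB, where EA and EB are the single-agent effects.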

NCI-H2731 (Mesothelioma) = assay: combination Emax (second highest fraction inhibited in the dose matrix, 72 h); higher = more inhibition; extreme values may be limits of the assay
How it was run: as §1

[2] = tested on: NCI-H929 (Plasma Cell Myeloma); assay: as above
How it was run: as §1

[3] = tested on: SK-GT-4 (Esophageal Adenocarcinoma); assay: as above
How it was run: as §1

M059J (Glioblastoma) = assay: as above
How it was run: as §1

[4] = tested on: NCI-H3122 (Lung Adenocarcinoma); assay: as above
How it was run: as §1

[5] = tested on: NCI-H526 (Small Cell Lung Carcinoma); assay: as above
How it was run: as §1

[6] = tested on: CW-2 (Colorectal Carcinoma); assay: as above
How it was run: as §1

[7] = tested on: NCI-H520 (Squamous Cell Lung Carcinoma); assay: as above
How it was run: as §1

[8] = tested on: KP-3 (Pancreatic Carcinoma); assay: as above
How it was run: as §1

[9] = tested on: MOG-G-CCM (Low Grade Glioma); assay: as above
How it was run: as §1

[10] = tested on: OCI-AML3 (Acute Myeloid Leukemia); assay: as above
How it was run: as §1

[11] = tested on: KU812 (Chronic Myelogenous Leukemia); assay: as above
How it was run: as §1

[12] = tested on: KYSE-270 (Esophageal Squamous Cell Carcinoma); assay: as above
How it was run: as §1

[13] = tested on: NCCIT (Other Solid Carcinomas); assay: as above
How it was run: as §1

[14] = tested on: COR-L279 (Small Cell Lung Carcinoma); assay: as above
How it was run: as §1

[15] = tested on: T-T (Esophageal Squamous Cell Carcinoma); assay: as above
How it was run: as §1

[16] = tested on: MN-60 (B-Lymphoblastic Leukemia); assay: as above
How it was run: as §1

[17] = tested on: DMS-114 (Small Cell Lung Carcinoma); assay: as above
How it was run: as §1

[18] = tested on: ST486 (Burkitt's Lymphoma); assay: as above
How it was run: as §1
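For Bliss excess, mean over the matrix in this document: after 72 h of two-drug dosing.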

SMILES	Bliss excess [1]	combination Emax (NCI-H2731 (Mesothelioma))	combination Emax [2]	combination Emax [3]	combination Emax (M059J (Glioblastoma))	combination Emax [4]	combination Emax [5]	combination Emax [6]	combination Emax [7]	combination Emax [8]	combination Emax [9]	combination Emax [10]	combination Emax [11]	combination Emax [12]	combination Emax [13]	combination Emax [14]	combination Emax [15]	combination Emax [16]	combination Emax [17]	combination Emax [18]
O=C(c1cc(Cc2n[nH]c(=O)c3ccccc23)ccc1F)N1CCN(C(=O)C2CC2)CC1 [Olaparib] + COc1nnc2ccc(N3CCC(c4ccc(OCCN5CCN(C)C(=O)[C@H]5C)cc4)CC3)nn12 [AZD5153] (first compound max 10 µM, 7x7, partner max 1 µM)	-0.0369	0.362	0.911	0.426	0.718	0.596	0.926	0.48	0.591	0.125	0.51	1	0.908	0.493	0.66	0.953	0.48	0.733	0.514	0.897
O=C(c1cc(Cc2n[nH]c(=O)c3ccccc23)ccc1F)N1CCN(C(=O)C2CC2)CC1 [Olaparib] + Cc1c2c(nn1C)CSCc1cc(n(C)n1)CSc1cc(c3ccccc3c1)OCCCc1c(C(=O)O)n(C)c3c-2c(Cl)ccc13 [AZD5991] (first compound max 10 µM, 7x7, partner max 1 µM)	0.0224	0.0516	1	0.0608	0.254	0.315	0.805	0.101	0.104	0.028	0.222	0.98	0.784	0.625	0.527	0.961	0.801	0.22	0.55	0.558
N#Cc1cnc(Nc2cc(NC[C@H]3CNCCO3)c(C(F)(F)F)cn2)cn1 [SRA737] + C=CCn1c(=O)c2cnc(Nc3ccc(N4CCN(C)CC4)cc3)nc2n1-c1cccc(C(C)(C)O)n1 [AZD1775] (first compound max 10 µM, partner max 1 µM)	0.171	0.357	0.724	0.565	0.659	0.724	0.753	0.499	0.755	0.294	0.683	0.934	0.796	0.991	0.821	0.834	0.671	0.642	0.229	0.987
N#Cc1cnc(Nc2cc(NC[C@H]3CNCCO3)c(C(F)(F)F)cn2)cn1 [SRA737] + CCc1c2c(nc3ccc(O)cc13)-c1cc3c(c(=O)n1C2)COC(=O)[C@]3(O)CC [SN-38] (first compound max 10 µM, 7x7, partner max 0.3 µM)	-0.067	0.478	0.9	0.55	0.908	0.857	0.993	0.625	0.819	0.273	0.734	0.849	0.799	1	0.783	1	0.834	0.79	0.608	0.991
N#Cc1cnc(Nc2cc(NC[C@H]3CNCCO3)c(C(F)(F)F)cn2)cn1 [SRA737] + O=c1[nH]cc(F)c(=O)[nH]1 [5-Fluorouracil] (first compound max 10 µM, 7x7, partner max 20 µM)	0.0646	0.172	0.768	0.407	0.315	0.611	0.855	0.403	0.588	0.307	0.419	0.922	0.606	0.99	0.458	0.821	0.384	0.436	0	0.928
Cc1nc(-c2cn3c(n2)-c2ccc(-c4cnn(C(C)(C)C(N)=O)c4)cc2OCC3)n(C(C)C)n1 [Taselisib] + O=C(Nc1ccc2[nH]nc(-c3ccncc3)c2c1)[C@@H]1CCN(CC(=O)N2CCN(c3ccc(-c4ncccn4)cc3)CC2)C1 [SCH772984] (first compound max 10 µM, 7x7, partner max 5 µM)	0.0661	0.553	1	0.924	0.564	0.978	0.189	0.546	0.638	0.354	0.577	0.941	1	0.822	0.693	0.835	0.853	0.31	0.732	0.654
